Reference: patent US12642794B2, “Dose regimens for use of LY3154207 in the treatment of dopaminergic CNS disorders” (Eli Lilly and Company, priority 2018, dated 2026)
Read-outs that look alike come from different tables or passages of the source.

What was measured:
Format in all cases: in vivo, human
healthy subjects = assay: HBEA ambulatory blood pressure monitoring (ABPM): blood pressure and pulse rate
Protocol: This is a phase 1, SAD, crossover design of LY3154207 in healthy subjects conducted in 2 alternating cohorts with dose escalation. Subjects are dosed at 25 mg, 75 mg, 100 mg, 150 mg and 200 mg or placebo. Safety parameters assessed include adverse events (AEs), safety laboratories, vital signs, ambulatory blood pressure monitoring (ABPM) and electrocardiogram (ECG). Subjects provide blood samples after dosing to measure plasma concentrations of LY3154207 for assessment of PK.
Eighteen subjects enrolled with 17 subjects completing the study. […] One subject withdrew due to anxiety following a 150 mg dose. A total of 111 treatment emergent AEs occurred and were mostly mild (101/111). Insomnia, decreased appetite, anxiety, dizziness, headache, nausea, upper abdominal pain, and dysgeusia were the most common AEs and the majority (69/111) occurred at doses ≥100 mg. A dose-related signal for increases in pulse and blood pressure occurred and resolved in 24 hours. […] The administered LY3154207 dose excreted in urine was 0.02%. […] Data indicating a dose-related signal for increases in pulse and blood pressure also indicate the dosing regimens of the present invention may provide an improved combination of efficacy, safety, and clinical tolerability for use of LY3154207 which can avoid and/or minimize these undesirable effects. […] In HBEA Part A, treatment-related adverse events (AEs) occurred primarily at doses ≥100 mg and were mostly mild. In HBEA Part B, treatment-related AEs occurred only at 75 mg (25% of subjects) and were all mild: energy increased, anxiety, decreased appetite, and dizziness. […] Based on ABPM, the 4- to 8-hour estimates of the difference in least squares means for LY3154207 200 mg vs. placebo were 32 beats per minute (bpm) for pulse rate, and 14 mm Hg and 10 mm Hg for systolic and diastolic blood pressure, respectively.

[1] = HBEC Part A pharmacokinetics, healthy subjects; conditions: for CLss/F / RAAUC(0-24) (accumulation ratio Day 14:Day 1) / RACmax (accumulation ratio Day 14:Day 1) / Cmax / AUC(0-t) / CL renal: geometric mean; for Cmax / AUC(0-t) / Tmax / CL renal: human, in vivo, oral; for AUC(0-t): read-out: AUC(0-24); for Tmax: read-out: tmax, median; for CL renal: read-out: CLr (renal clearance) (converted)
Protocol: In this randomized, double-blind, placebo-controlled, multiple ascending dose, parallel-group study, HBEC, healthy subjects (Part A) and participants with PD (Part B) received once-daily doses of LY3154207 (15, 30, 75, or 150 mg in Part A and up to 75 mg in Part B) or placebo for 14 days, as illustrated in FIG. 3.
Study outcomes included 24-hour ambulatory blood pressure monitoring (ABPM), treatment-emergent adverse events (TEAEs), and PK assessments in both healthy subjects and participants with PD, as well as Movement Disorder Society-United Parkinson's Disease Rating Scale (MDS-UPDRS) assessments to evaluate the impact of LY3154207 on motor function in participants with PD. The objective was to explore the safety, tolerability, and pharmacokinetics (PK) of multiple oral daily dosing of LY3154207 in healthy subjects (Part A) and in participants with PD (Part B).

healthy volunteers = assay: HBEA Part B adverse events; conditions: 75 mg, all mild
Description: HBEA is a single ascending dose study of a D1 receptor positive allosteric modulator LY3154207 in healthy volunteers. Study HBEA aims to determine the safety, tolerability, and peripheral and central pharmacokinetics (PK) of single ascending doses of LY3154207 in healthy subjects. Study HBEB aims to evaluate the effect of single-dose LY3154207 on sleep latency in sleep-deprived healthy male subjects as measured by a multiple sleep latency test (MSLT). HBEA was a Phase 1, 2-part, randomized, double-blind, placebo-controlled study in healthy males or females. Part A has a 3-period crossover design with 2 alternating, single-dose escalating cohorts, and subjects were randomized to LY3154207 (n=6) or placebo (n=3) in each cohort in each dosing period. Part B has a single-period, single-dose, 2-cohort design with cerebrospinal fluid (CSF) sampling, and subjects were randomized to LY3154207 (n=8) or placebo (n=4) in each cohort.
HBEA Part B is a study of Cerebrospinal fluid (CSF) and plasma pharmacokinetic (PK) profile following a single dose of LY3154207 in healthy volunteers. The objective of the study is to determine the CSF and plasma PK profile of LY3154207 in a single dose study m healthy volunteers. This study consisted of 2 cohorts in a single-dose, single-period, placebo-controlled, randomized, double-blind, parallel-group study. […]

[2] = 200 mg, ABPM 4- to 8-hour estimate

**Q.** What does the source list for `C[C@H]1c2cccc(CCC(C)(C)O)c2C[C@H](CO)N1C(=O)Cc1c(Cl)cccc1Cl` [LY3154207]?
**A.** diastolic blood pressure, difference in least squares means vs. placebo (healthy subjects; [2]): 10 mm Hg; pulse rate, difference in least squares means vs. placebo (healthy subjects; [2]): 32 bpm; systolic blood pressure, difference in least squares means vs. placebo (healthy subjects; [2]): 14 mm Hg; time to resolution of increases in blood pressure and pulse rate (healthy subjects; ABPM, mostly resolving): ≤ 24 h; effect on blood pressure and pulse rate measured by ABPM (healthy subjects; single doses 25-200 mg, diurnal rhythm preserved): dose-related increase; accumulation upon repeated dosing [1]: minimal accumulation; CLss/F ([1]; Day 14, LY 15 mg (N = 9)): 30.5 L/h; CLss/F ([1]; Day 14, LY 30 mg (N = 9)): 24.2 L/h; CLss/F ([1]; Day 14, LY 75 mg (N = 9)): 33.8 L/h; CLss/F ([1]; Day 14, LY 150 mg (N = 9)): 34.5 L/h; RAAUC(0-24) (accumulation ratio Day 14:Day 1) ([1]; LY 15 mg (N = 9)): 1.34; RACmax (accumulation ratio Day 14:Day 1) ([1]; LY 15 mg (N = 9)): 1.18; RAAUC(0-24) (accumulation ratio Day 14:Day 1) ([1]; LY 30 mg (N = 9)): 1.03; RACmax (accumulation ratio Day 14:Day 1) ([1]; LY 30 mg (N = 9)): 1.12; RAAUC(0-24) (accumulation ratio Day 14:Day 1) ([1]; LY 75 mg (N = 9)): 0.99; RACmax (accumulation ratio Day 14:Day 1) ([1]; LY 75 mg (N = 9)): 1.13; RAAUC(0-24) (accumulation ratio Day 14:Day 1) ([1]; LY 150 mg (N = 9)): 0.93; RACmax (accumulation ratio Day 14:Day 1) ([1]; LY 150 mg (N = 9)): 0.92; Cmax ([1]; Day 14, LY 15 mg (N = 9)): 66.2 ng/mL; AUC(0-t) ([1]; Day 14, LY 15 mg (N = 9)): 492 ng·h/mL; Tmax ([1]; Day 14, LY 15 mg (N = 9)): 2 h; Cmax ([1]; Day 14, LY 30 mg (N = 9)): 149 ng/mL; AUC(0-t) ([1]; Day 14, LY 30 mg (N = 9)): 1240 ng·h/mL; CL renal ([1]; Day 14, LY 30 mg (N = 9)): 0.06 mL/min; Tmax ([1]; Day 14, LY 30 mg (N = 9)): 2 h; Cmax ([1]; Day 14, LY 75 mg (N = 9)): 307 ng/mL; AUC(0-t) ([1]; Day 14, LY 75 mg (N = 9)): 2220 ng·h/mL; CL renal ([1]; Day 14, LY 75 mg (N = 9)): 0.04 mL/min; Tmax ([1]; Day 14, LY 75 mg (N = 9)): 2 h; Cmax ([1]; Day 14, LY 150 mg (N = 9)): 500 ng/mL; AUC(0-t) ([1]; Day 14, LY 150 mg (N = 9)): 4350 ng·h/mL; CL renal ([1]; Day 14, LY 150 mg (N = 9)): 0.0567 mL/min; Tmax ([1]; Day 14, LY 150 mg (N = 9)): 3 h; subjects with treatment-related AEs (healthy volunteers): 25%
